Test results as given in the supplement of paper PMC10307832.

Legend:
Assay in all cases: relative viability (nuclei count vs DMSO), 5 days (fraction); higher = more cells survive
[1] = system: H3255
Procedure, shortened: (§1)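 Values are medians from duplicate plates. Each reflects relative viability, defined as the nuclei count of treated wells over that of vehicle wells. Lung cancer cell lines in 1536-well plates were pin-tool dosed one day after seeding with one drug alone or with a fixed anchor-drug dose plus five library-drug doses (not always all listed) in √10 steps, then fixed, stained and imaged at 4× after 5 days.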

[2] = system: NCI-H520
Procedure, shortened: as §1

[3] = system: NCI-H2087
Procedure, shortened: as §1

[4] = system: NCI-H1793
Procedure, shortened: as §1

[5] = system: NCI-H1563
Procedure, shortened: as §1

[6] = system: NCI-H1651
Procedure, shortened: as §1

[7] = system: SK-MES-1
Procedure, shortened: as §1

[8] = system: LCLC-103H
Procedure, shortened: as §1

[9] = system: LCLC-97TM1
Procedure, shortened: as §1

[10] = system: HCC-44
Procedure, shortened: as §1

[11] = system: NCI-H1993
Procedure, shortened: as §1

[12] = system: NCI-H23
Procedure, shortened: as §1

[13] = system: NCI-H322M
Procedure, shortened: as §1

[14] = system: EMC-BAC-2
Procedure, shortened: as §1

[15] = system: EPLC-272H
Procedure, shortened: as §1

[16] = system: UMC-11
Procedure, shortened: as §1

[17] = system: NCI-H1395
Procedure, shortened: as §1

[18] = system: NCI-H650
Procedure, shortened: as §1

[19] = system: HCC-827
Procedure, shortened: as §1

[20] = system: NCI-H1355
Procedure, shortened: as §1

[21] = system: NCI-H2405
Procedure, shortened: as §1

[22] = system: NCI-H1944
Procedure, shortened: as §1

[23] = system: NCI-H2085
Procedure, shortened: as §1

## CC(C)Oc1cc(Nc2nc(N[C@@H](C)c3ccc(F)cn3)ncc2Cl)n[nH]1 [AZ23] + Cc1nc(NC(=O)N2CCC[C@H]2C(N)=O)sc1-c1ccnc(C(C)(C)C(F)(F)F)c1 [Alpelisib] (partner 2 µM)
[1]; first compound 0.01 µM
  relative viability: 0.637
[1]; first compound 0.03162 µM
  relative viability: 0.868
[1]; first compound 0.3162 µM
  relative viability: 0.863
[2]; first compound 0.01 µM
  relative viability: 1.06
[2]; first compound 0.03162 µM
  relative viability: 0.988
[2]; first compound 0.3162 µM
  relative viability: 0.752
[3]; first compound 0.01 µM
  relative viability: 1.39
[3]; first compound 0.03162 µM
  relative viability: 1.07
[3]; first compound 0.3162 µM
  relative viability: 1.07
[4]; first compound 0.01 µM
  relative viability: 0.83
[4]; first compound 0.03162 µM
  relative viability: 0.787
[4]; first compound 0.3162 µM
  relative viability: 0.643
[5]; first compound 0.01 µM
  relative viability: 0.895
[5]; first compound 0.03162 µM
  relative viability: 0.961
[5]; first compound 0.3162 µM
  relative viability: 0.899
[6]; first compound 0.01 µM
  relative viability: 0.773
[6]; first compound 0.03162 µM
  relative viability: 1.05
[6]; first compound 0.3162 µM
  relative viability: 1.16
[7]; first compound 0.01 µM
  relative viability: 1.01
[7]; first compound 0.03162 µM
  relative viability: 0.997
[7]; first compound 0.3162 µM
  relative viability: 1.06
[8]; first compound 0.01 µM
  relative viability: 0.953
[8]; first compound 0.03162 µM
  relative viability: 1.01
[8]; first compound 0.3162 µM
  relative viability: 0.996
[9]; first compound 0.01 µM
  relative viability: 0.228
[9]; first compound 0.03162 µM
  relative viability: 0.246
[9]; first compound 0.3162 µM
  relative viability: 0.245
[10]; first compound 0.01 µM
  relative viability: 0.858
[10]; first compound 0.03162 µM
  relative viability: 0.915
[10]; first compound 0.3162 µM
  relative viability: 0.871
[11]; first compound 0.01 µM
  relative viability: 0.597
[11]; first compound 0.3162 µM
  relative viability: 0.659
[12]; first compound 0.03162 µM
  relative viability: 0.749
[12]; first compound 0.3162 µM
  relative viability: 0.573
[13]; first compound 0.01 µM
  relative viability: 0.774
[13]; first compound 0.03162 µM
  relative viability: 0.774
[13]; first compound 0.3162 µM
  relative viability: 0.823
[14]; first compound 0.01 µM
  relative viability: 0.897
[14]; first compound 0.03162 µM
  relative viability: 0.791
[14]; first compound 0.3162 µM
  relative viability: 0.754
[15]; first compound 0.01 µM
  relative viability: 0.873
[15]; first compound 0.03162 µM
  relative viability: 1.18
[16]; first compound 0.01 µM
  relative viability: 0.883
[16]; first compound 0.03162 µM
  relative viability: 1.07
[16]; first compound 0.3162 µM
  relative viability: 0.943
[17]; first compound 0.03162 µM
  relative viability: 1.06
[17]; first compound 0.3162 µM
  relative viability: 1.08
[18]; first compound 0.01 µM
  relative viability: 1.03
[18]; first compound 0.03162 µM
  relative viability: 1.19
[18]; first compound 0.3162 µM
  relative viability: 1.16
[19]; first compound 0.01 µM
  relative viability: 1.11
[19]; first compound 0.03162 µM
  relative viability: 1.05
[19]; first compound 0.3162 µM
  relative viability: 1.07
[20]; first compound 0.01 µM
  relative viability: 0.876
[20]; first compound 0.03162 µM
  relative viability: 0.873
[20]; first compound 0.3162 µM
  relative viability: 0.782
[21]; first compound 0.01 µM
  relative viability: 0.708
[21]; first compound 0.03162 µM
  relative viability: 0.768
[21]; first compound 0.3162 µM
  relative viability: 0.754
[22]; first compound 0.01 µM
  relative viability: 0.811
[22]; first compound 0.03162 µM
  relative viability: 0.868
[22]; first compound 0.3162 µM
  relative viability: 0.883
[23]; first compound 0.01 µM
  relative viability: 1
[23]; first compound 0.03162 µM
  relative viability: 0.999
[23]; first compound 0.3162 µM
  relative viability: 0.938
